Results: PMC7233170 (Bioorganic chemistry, 2020)
Like-named read-outs stand apart in the source and are kept apart here. One block for each molecule: values may come before it.

Experiments:
sEH [1] = target: T1, sEH (Homo sapiens, UniProt P34913); assay: sEH inhibitory activity; conditions: for Inhibition of compounds against sEH, 50 μM (%): compound at 50 μM
T1 sequence (P34913 1-555): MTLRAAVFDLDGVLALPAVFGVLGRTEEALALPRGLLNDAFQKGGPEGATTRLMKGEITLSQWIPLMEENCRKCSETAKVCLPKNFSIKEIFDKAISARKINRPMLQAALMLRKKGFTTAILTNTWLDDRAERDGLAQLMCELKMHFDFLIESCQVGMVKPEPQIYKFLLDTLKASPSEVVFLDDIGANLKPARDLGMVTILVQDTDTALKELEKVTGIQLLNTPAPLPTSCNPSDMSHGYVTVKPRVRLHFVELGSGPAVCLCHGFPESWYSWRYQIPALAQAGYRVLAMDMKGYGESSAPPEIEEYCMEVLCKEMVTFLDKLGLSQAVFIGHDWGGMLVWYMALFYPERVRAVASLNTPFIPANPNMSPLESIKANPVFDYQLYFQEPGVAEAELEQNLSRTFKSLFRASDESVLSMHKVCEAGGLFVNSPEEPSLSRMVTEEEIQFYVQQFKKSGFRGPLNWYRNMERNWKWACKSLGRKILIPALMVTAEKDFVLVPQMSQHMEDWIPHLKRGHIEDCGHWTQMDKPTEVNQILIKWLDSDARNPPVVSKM

sEH [2] = target: T1, sEH; assay: Inhibitory kinetic analysis
[3] = read-out: Inhibition of compounds against sEH, IC50, PHOME 10 μM, 20 min, 37 °C, pH 7.4
[4] = PHOME 10 μM, 20 min, 37 °C, pH 7.4

Molecule: 16-oxo-11-anhydro alisol A 23,24-acetonide [Compound 11]
IC50 (sEH [1]; [3]): 36.3 ± 4 µM

Molecule: C[C@H](C[C@H](O)[C@@H](O)C(C)(C)O)C1=C2C[C@H](O)[C@H]3[C@@]4(C)CCC(=O)C(C)(C)[C@@H]4CC[C@]3(C)[C@@]2(C)CC1 [Compound 2, alisol A]
IC50 (sEH [1]): > 50 µM
inhibition at 50 µM (sEH [1]; pH 7.4, read-out: Inhibition of compounds against sEH, 50 μM (%)): 27.3 ± 2.81%

Molecule: CC(CC(O)C(=O)C(C)(C)O)C1=C2CC(O)C3C4(C)CCC(=O)C(C)(C)C4CC(O)C3(C)C2(C)CC1 (stereo not drawn) [Compound 10, 7α-hydroxy-24-oxo alisol A]
Inhibition of compounds against sEH, 50 μM (%) (sEH [1]; [4]): 18.64 ± 0.45%
IC50 (sEH [1]; [3]): > 50 µM

Molecule: C=C(C)[C@H](O)[C@@H](O)C[C@@H](C)C1=C2C=C[C@H]3[C@@]4(C)CCC(=O)C(C)(C)[C@@H]4CC[C@]3(C)[C@@]2(C)CC1=O [Compound 12, alismanol B]
Inhibition of compounds against sEH, 50 μM (%) (sEH [1]; [4]): 44.97 ± 0.95%
IC50 (sEH [1]; [3]): > 50 µM

Molecule: CCOC(C)(C)[C@H](O)[C@@H](O)C[C@@H](C)C1=C2C[C@H](O)[C@H]3[C@@]4(C)CCC(=O)C(C)(C)[C@@H]4CC[C@]3(C)[C@@]2(C)CC1 [Compound 15, 25-O-ethyl alisol A]
Inhibition of compounds against sEH, 50 μM (%) (sEH [1]; [4]): 78.66 ± 2.19%
IC50 (sEH [1]; [3]): 9.57 ± 0.88 µM

Molecule: C=C(C)[C@H](O)[C@@H]1C[C@@H](C)C2=C3C[C@H](O)[C@H]4[C@@]5(C)CCC(=O)C(C)(C)[C@@H]5CC[C@]4(C)[C@@]3(C)C[C@@H]2O1 [Compound 16, 25-anhydro alisol F]
IC50 (sEH [1]; [3]): 21.2 ± 0.5 µM

Molecule: CC1(C)O[C@@H]1[C@@H](O)C[C@](C)(O)C1=C2C[C@H](O)[C@H]3[C@@]4(C)CCC(=O)C(C)(C)[C@@H]4CC[C@]3(C)[C@@]2(C)CC1=O [Compound 19, 20-hydroxy alisol C]
IC50 (sEH [1]; [3]): 22.2 ± 1 µM

Molecule: CC(=O)O[C@H]([C@@H]1C[C@@H](C)C2=C3[C@H](O)C[C@H]4[C@@]5(C)CCC(=O)C(C)(C)[C@@H]5CC[C@]4(C)[C@@]3(C)C[C@@H]2O1)C(C)(C)O [Compound 21, 11-deoxy-12β-hydroxy alisol F 24-acetate]
Inhibition of compounds against sEH, 50 μM (%) (sEH [1]; [4]): 39.33 ± 0.92%
IC50 (sEH [1]; [3]): > 50 µM

Molecule: COC1CC2(C)C(=C1C(C)CC(O)C(OC(C)=O)C(C)(C)O)C(O)CC1C3(C)CCC(=O)C(C)(C)C3CCC12C (stereo not drawn) [Compound 23, 1-deoxy-12β-hydroxy-16β-methoxy alisol A 24-acetate]
Inhibition of compounds against sEH, 50 μM (%) (sEH [1]; [4]): 16.27 ± 0.72%
IC50 (sEH [1]; [3]): > 50 µM

Molecule: C=C(C)[C@@H]1OC(C)(C)O[C@H]1C[C@@H](C)C1=C2C[C@H](O)[C@H]3[C@@]4(C)CCC(=O)C(C)(C)[C@@H]4CC[C@]3(C)[C@@]2(C)CC1 [Compound 24, alisol G (23, 24)-diol acetonide]
IC50 (sEH [1]; [3]): 14.6 ± 1.6 µM

Molecule: alisol B 23-acetate [Compound 9]
Inhibition of compounds against sEH, 50 μM (%) (sEH [1]; [4]): 37.63 ± 0.86%
IC50 (sEH [1]; [3]): > 50 µM

Further lines, results first:

IC50 (sEH [1]; [3]): 31.5 ± 1.4 µM
Molecule: 25-ethoxy-16-oxo-11-anhydro alisol A [Compound 18]

Inhibition of compounds against sEH, 50 μM (%) (sEH [1]; [4]): 17.63 ± 0.56%
IC50 (sEH [1]; [3]): > 50 µM
Molecule: 25-methoxy alisol F 23-acetate [Compound 20]

Inhibition of compounds against sEH, 50 μM (%) (sEH [1]; [4]): 75.31 ± 2.42%
IC50 (sEH [1]; [3]): 7.15 ± 1.09 µM
Molecule: CC(C)[C@@H](O)C[C@@H](C)C1=C2C[C@H](O)[C@H]3[C@@]4(C)CCC(=O)C(C)(C)[C@@H]4CC[C@]3(C)[C@@]2(C)CC1 [Compound 1, Alismanin B]

Inhibition of compounds against sEH, 50 μM (%) (sEH [1]; [4]): 78.54 ± 1.86%
IC50 (sEH [1]; [3]): 14.8 ± 1.1 µM
Molecule: COC(C[C@@H](C)C1=C2C[C@H](O)[C@H]3[C@@]4(C)CCC(=O)C(C)(C)[C@@H]4CC[C@]3(C)[C@@]2(C)CC1)OC [Compound 3, alismanin D]

Inhibition of compounds against sEH, 50 μM (%) (sEH [1]; [4]): 71.21 ± 1.56%
IC50 (sEH [1]; [3]): 5.94 ± 0.54 µM
Inhibition type (sEH [2]; from Lineweaver-Burk plots): mixed-type competitive
Ki (sEH [2]; inhibition constant from slope plots): 12.6 µM
Molecule: C=C(C)[C@@H](O)[C@@H](O)C[C@@H](C)C1=C2CC[C@H]3[C@@]4(C)CCC(=O)C(C)(C)[C@@H]4CC[C@]3(C)[C@@]2(C)CC1 [Compound 4, 11-deoxy-25-anhydro alisol E]

Inhibition of compounds against sEH, 50 μM (%) (sEH [1]; [4]): 71.6 ± 2.12%
IC50 (sEH [1]; [3]): 14.6 ± 1.1 µM
Molecule: C=C(C)[C@@H](O)[C@@H]1C[C@@H](C)[C@@]2(CC[C@@]3(C)C2=C[C@H](OC)[C@H]2[C@@]4(C)CCC(=O)C(C)(C)[C@@H]4CC[C@@]23C)O1 [Compound 6, alismanin F]

Inhibition of compounds against sEH, 50 μM (%) (sEH [1]; [4]): 24.45 ± 1.03%
IC50 (sEH [1]; [3]): > 50 µM
Molecule: CC(C)(O)C1O[C@](C)(C2=C3C[C@H](O)[C@H]4[C@@]5(C)CCC(=O)C(C)(C)[C@@H]5CC[C@]4(C)[C@@]3(C)CC2=O)CC1O (stereo partly shown) [Compound 7, alismanol O]

Inhibition of compounds against sEH, 50 μM (%) (sEH [1]; [4]): 44.42 ± 1.43%
IC50 (sEH [1]; [3]): > 50 µM
Molecule: CC(CC(O)C(O)C(C)(C)O)C1=C2C(O)C(O)C3C4(C)CCC(=O)C(C)(C)C4CC(O)C3(C)C2(C)CC1 (stereo not drawn) [Compound 8, 7α,12α-dihydroxyalisol A]

IC50 (sEH [1]; [3]): 22.1 ± 1.4 µM
Molecule: C[C@@H]1C[C@@H]([C@@H](O)C(C)(C)O)O[C@H]2C[C@@]3(C)C(=C12)CC[C@H]1[C@@]2(C)CCC(=O)C(C)(C)[C@@H]2CC[C@@]13C [Compound 13, 11-deoxy alisol F]

Inhibition of compounds against sEH, 50 μM (%) (sEH [1]; [4]): 18.30 ± 0.35%
IC50 (sEH [1]; [3]): > 50 µM
Molecule: C[C@@H]1C[C@@H]([C@@H](O)C(C)(C)O)O[C@H]2C[C@@]3(C)C(=C12)C[C@H](O)[C@H]1[C@@]2(C)CCC(=O)C(C)(C)[C@@H]2CC[C@@]13C [Compound 14, alisol F]

Inhibition of compounds against sEH, 50 μM (%) (sEH [1]; [4]): 49.44 ± 1.15%
IC50 (sEH [1]; [3]): > 50 µM
Molecule: COC(=O)C[C@@H](C)C1=C2[C@H](O)C[C@H]3[C@@]4(C)CCC(=O)C(C)(C)[C@@H]4CC[C@]3(C)[C@@]2(C)C[C@@H]1OC [Compound 17, alismanin E]

Inhibition of compounds against sEH, 50 μM (%) (sEH [1]; [4]): 17.96 ± 0.69%
IC50 (sEH [1]; [3]): > 50 µM
Molecule: C[C@@H]1C[C@@H]([C@@H](O)C(C)(C)O)O[C@H]2C[C@@]3(C)C(=C12)[C@H](O)C[C@H]1[C@@]2(C)CCC(=O)C(C)(C)[C@@H]2CC[C@@]13C [Compound 22, 11-deoxy-12β-hydroxy alisol F]

IC50 (sEH [1]; [3]): 21.4 ± 1.7 µM
Molecule: CC(=O)O[C@H]([C@@H](O)C[C@@H](C)C1=C2C[C@H](O)[C@H]3[C@@]4(C)CCC(=O)C(C)(C)[C@@H]4CC[C@]3(C)[C@@]2(C)CC1)C(C)(C)O [Compound 25, alisol A 24-acetate]
